# What was measured:
# Type in all cases: in vivo
# [1] = test system: Frankliniella occidentalis; assay: Two-plant choice test of thrips repellency after spraying (Examples 1 and 2); conditions: for repellency against thrips (number of thrips on plant vs water control): 100 μM solution sprayed; for repellency against thrips (number of thrips on plant vs water control) / repellency against Frankliniella occidentalis: thrips released two days after, counted 24 h later; for repellency against Frankliniella occidentalis: 100 μM PDJ sprayed
# Protocol: Then, 100 μM PDJ solution was directly sprayed on one of the two plant individuals by use of a spraying device. On the other one of the two plant individuals, only water was sprayed similarly. This plant individual on which only water was sprayed was a control. Two days after the above treatment, 30 female adult thrips of Frankliniella occidentalis were released at a middle point between the two plant individuals. Twenty-four hours after that release of Frankliniella occidentalis, the number of thrips on each plant individual was counted so that which one of the plant individuals the thrips had moved to was found. With use of 100 μM JA solution, a similar experiment was carried out. Further, similar experiments with use of the 100 μM PDJ solution and the 100 μM JA solution were carried out on tomato (Solanum lycopersicum) three weeks after seeding.
# (§1) Then, 100 μM PDJ solution was sprayed on an entire aerial part of only one of the two plant individuals by use of a spraying device. On the other one of the two plant individuals, only water was sprayed by a similar method. This plant individual on which only water was sprayed was a control. Two days after the above spraying, 30 female adult thrips of Frankliniella occidentalis were released at a middle point between the two plant individuals. Twenty-four hours after that release of Frankliniella occidentalis, the number of thrips on each plant individual was counted so that which one of the plant individuals the thrips had moved to was found.
# Further, the target plant was changed to crown daisy (Glebionis coronaria) of the family Asteraceae, and repellency against thrips was studied similarly.
# [2] = test system: Frankliniella occidentalis; assay: Repeated spraying on tomato, thrips count on third and higher-order true leaves (Example 5); conditions: counted forty days after release
# Protocol: Then, 100 μM PDJ solution was directly prayed on an entire aerial part of only one of the two plant individuals by use of a spraying device. The above spraying was carried out 3 times, 4 times or 5 times at intervals of 5 to 7 days. On the other one of the two plant individuals, only water was sprayed by a similar method. This plant individual on which only water was sprayed was a control. Four days after the last spraying, 30 female adult thrips of Frankliniella occidentalis were released at a middle point between the two plant individuals. Forty days after that release of Frankliniella occidentalis, the number of thrips on the third and higher-order true leaves was counted. […] In the case of the plant individual on which the PDJ solution was sprayed 3 times, the total number of thrips attached to the third and higher-order true leaves was approximately 20% relative to that of the control. In the case of the plant individual on which the PDJ solution was sprayed 4 times or 5 times, the total number of thrips attached to the third and higher-order true leaves was 0% relative to that of the control. In this way, it was clarified that in a case where spraying is carried out 4 times or 5 times at intervals of 5 days to 7 days, repellency against thrips is higher than that in a case where spraying is carried out 3 times.
# Frankliniella intonsa = assay: Two-plant choice test of thrips repellency after spraying (Example 4); conditions: 100 μM PDJ sprayed, thrips released two days after, counted 24 h later
# Protocol: as §1, with “intonsa” for “occidentalis”, “intonsa,” for “occidentalis,”
# Thrips tabaci Lindeman = assay: Two-plant choice test of thrips repellency after spraying (Example 3); conditions: 100 μM PDJ sprayed, thrips released two days after, counted 24 h later
# Protocol: Then, 100 μM PDJ was sprayed on an entire aerial part of only one of the two plant individuals by use of a spraying device. On the other one of the two plant individuals, only water was sprayed by a similar method. This plant individual on which only water was sprayed was a control. Two days after the above spraying, 30 female adult thrips of Thrips tabaci Lindeman were released at a middle point between the two plant individuals. Twenty-four hours later, the number of Thrips tabaci Lindeman on each plant individual was counted so that which one of the plant individuals the thrips had moved to was found. As a result, with regard to the green pepper (bell pepper) (Capsicum annuum L. ‘grossum’), an attachment rate of Thrips tabaci Lindeman was approximately 40% relative to that of the control. Meanwhile, with regard to cabbage (Brassica oleracea var. capitata), an attachment rate of Thrips tabaci Lindeman was approximately 40% relative to that of the control.
# [3] = test system: Frankliniella occidentalis; assay: Spraying time relative to development of fourth true leaf of tomato, thrips count (Examples 6 and 7); conditions: counted six days after release
# Protocol: Then, 100 μM PDJ solution was sprayed on an entire aerial part of only one of the two plant individuals by use of a spraying device. On the other one of the two plant individuals, only water was sprayed by a similar method. This plant individual on which only water was sprayed was a control. The above spraying was carried out at time points 3 days, 7 days, 10 days and 15 days after the start of development of the fourth true leaf. Four days after the above spraying, 30 female adult thrips of Frankliniella occidentalis were released at a middle point between the two plant individuals. Six days after that release of Frankliniella occidentalis, the number of thrips on the fourth true leaf was counted. […] The number of thrips attached to the fourth true leaf was approximately 5% of that of the control in the case of the spraying carried out at the time point 3 days after the start of the development of the fourth true leaf, approximately 10% of that of the control in the case of the spraying carried out at the time point 7 days after the start of the development, approximately 40% of that of the control in the case of the spraying carried out at the time point 10 days after the start of the development, and approximately 50% of that of the control in the case of the spraying carried out at the time point 15 days after the start of the development. In this way, it was clarified that in a case where the spraying was carried out within 7 days from the start of development of a new leaf of a plant, repellency against thrips given to the plant is higher than that in a case where spraying is carried out more than 7 days after the start of the development. In a greenhouse whose room temperature was kept in a range of 20° C. to 25° C., two plant individuals of tomato (Solanum lycopersicum) (approximately 1 to 1.5 months after seeding), which had developed 3 true leaves, were placed apart from each other such that a distance of […] was provided and kept between these plant individuals. Then, 100 μM PDJ solution was sprayed on an entire aerial part of only one of the two plant individuals by use of a spraying device. At this time point, the fourth true leaf was not yet developed. On the other one of the two plant individuals, only water was sprayed by a similar method. This plant individual on which only water was sprayed was a control. Four days after the above spraying, 30 female adult thrips of Frankliniella occidentalis were released at a middle point between the two plant individuals. Six days after that release of Frankliniella occidentalis, the number of thrips on the fourth true leaf was counted. […] The number of thrips attached to the fourth true leaf was approximately 100% of that of the control.
# [4] = 100 μM PDJ sprayed when fourth true leaf was not yet developed (Example 7)
compound,measurement,setting,value
"CC/C=C\CC1C(=O)CCC1CC(=O)OC (stereo not shown) [JA, methyl jasmonate, reference compound]",repellency against thrips (number of thrips on plant vs water control),[1]; Arabidopsis thaliana,can give repellency against thrips
same,repellency against thrips (number of thrips on plant vs water control),[1]; tomato (Example 1),can give repellency against thrips
prohydrojasmon [PDJ],total number of thrips attached to the third and higher-order true leaves relative to that of the control,[2]; 100 μM PDJ sprayed 3 times at intervals of 5 to 7 days,approximately 20%
same,total number of thrips attached to the third and higher-order true leaves relative to that of the control,[2]; 100 μM PDJ sprayed 4 times at intervals of 5 to 7 days,0%
same,total number of thrips attached to the third and higher-order true leaves relative to that of the control,[2]; 100 μM PDJ sprayed 5 times at intervals of 5 to 7 days,0%
same,repellency against Frankliniella intonsa,Frankliniella intonsa; cabbage,sufficient repellency
same,repellency against Frankliniella intonsa,Frankliniella intonsa; chrysanthemum,sufficient repellency
same,repellency against Frankliniella intonsa,Frankliniella intonsa; cucumber,sufficient repellency
same,repellency against Frankliniella intonsa,Frankliniella intonsa; green pepper,sufficient repellency
same,repellency against Frankliniella intonsa,Frankliniella intonsa; strawberry,sufficient repellency
same,repellency against Frankliniella intonsa,Frankliniella intonsa; tomato,sufficient repellency
same,attachment rate of Thrips tabaci Lindeman relative to that of the control,Thrips tabaci Lindeman; cabbage,approximately 40%
same,attachment rate of Thrips tabaci Lindeman relative to that of the control,Thrips tabaci Lindeman; green pepper,approximately 40%
same,repellency against thrips (number of thrips on plant vs water control),[1]; Arabidopsis thaliana,can give repellency against thrips
same,repellency against Frankliniella occidentalis,[1]; cabbage,sufficient repellency
same,repellency against Frankliniella occidentalis,[1]; chrysanthemum,sufficient repellency
same,repellency against thrips,"[1]; crown daisy (Glebionis coronaria), studied similarly to Example 2",repellency against thrips is given
same,repellency against Frankliniella occidentalis,[1]; cucumber,sufficient repellency
same,repellency against Frankliniella occidentalis,[1]; green pepper,sufficient repellency
same,repellency against Frankliniella occidentalis,[1]; strawberry,sufficient repellency
same,repellency against thrips (number of thrips on plant vs water control),[1]; tomato (Example 1),can give repellency against thrips
same,repellency against Frankliniella occidentalis,[1]; tomato (Example 2),sufficient repellency
same,"number of thrips attached to the fourth true leaf, of that of the control",[3]; 100 μM PDJ sprayed 3 days after start of development of fourth true leaf,approximately 5%
same,"number of thrips attached to the fourth true leaf, of that of the control",[3]; 100 μM PDJ sprayed 7 days after start of development of fourth true leaf,approximately 10%
same,"number of thrips attached to the fourth true leaf, of that of the control",[3]; 100 μM PDJ sprayed 10 days after start of development of fourth true leaf,approximately 40%
same,"number of thrips attached to the fourth true leaf, of that of the control",[3]; 100 μM PDJ sprayed 15 days after start of development of fourth true leaf,approximately 50%
same,"number of thrips attached to the fourth true leaf, of that of the control",[3]; [4],approximately 100%
same,total number of thrips attached to the first to third true leaves vs control,[3]; [4],much smaller than that of the control
